Assay results as given in article PMC6470533, “Structure–Activity Study, Characterization, and Mechanism of Action of an Antimicrobial Peptoid D2 and Its D- and L-Peptide Analogues” (Molecules, 2019).
Converted amounts (≈) assume the structure as drawn. Non-standard residues stand in square brackets, D forms with d. Residues, ends and D or L forms follow the SMILES beside them. N(1-naphthylmethyl)Gly = O=C(O)CNCc1cccc2ccccc12; d1Nal = N[C@H](Cc1cccc2ccccc12)C(=O)O; N(4-MeBn)Gly = Cc1ccc(CNCC(=O)O)cc1; Gly(N-CH2CH2OH) = O=C(O)CNCCO; dNle = CCCC[C@@H](N)C(=O)O; NBuGly = CCCCNCC(=O)O; Nlys = NCCCCNCC(=O)O; Sar = CNCC(=O)O

Assays:
[1] = test system: Methicillin sensitive Staphylococcus pseudintermedius (26916); format: cell-based; conditions: 18 h
[2] = test system: Methicillin resistant Staphylococcus pseudintermedius, (C22963); format: cell-based; conditions: 18 h
[3] = test system: Staphylococcus aureus (ATCC 29213); format: cell-based; conditions: ATCC 29213, 18 h
[4] = test system: Pseudomonas aeruginosa (ATCC 27853); format: cell-based; conditions: ATCC 27853, 18 h
Method: To explore the antimicrobial activity of the library of peptides and peptidomimetics, they were tested against Acinetobacter baumannii, Corynebacterium auriscanis, Escherichia coli, Enterococcus faecalis, Enterococcus faecium, Klebsiella pneumonia, Proteus mirabilis, and Pseudomonas aeruginosa. Bacteria grown on agar plates for 18 h at 37 °C were diluted to ~1 × 10^8 CFU/mL in Mueller–Hinton broth (MHB). Two-fold serial dilutions of peptides and peptidomimetics in MHB II were inoculated with bacteria to achieve a final concentration of 5 × 10^5 CFU/mL in polypropylene 96 U-well microtiter plates (Almeco, Esbjerg, Denmark), followed by incubation at 37 °C in ambient air for 18 h. The MIC values were determined as the lowest concentration showing no visible bacterial growth. Experiments were performed twice (in technical triplicates) on two different days.

red blood cell (RBC) = conditions: 0.5% RBC suspension in PBS, 1 h, 37 °C, read at 414 nm, normalized to mellitin and PBS, triplicates
Method: Briefly, 75 µL of peptide in PBS was mixed with 75 µL of a 0.5% red blood cell (RBC) suspension in PBS, and incubated for 1 h at 37 °C. The hemoglobin release was then measured at 414 nm and normalized, using mellitin as positive control and PBS as negative control. Experiments were done in triplicates.

Compound	MIC MSSP [1]	MIC MRSP [2]	MIC SA [3]	MIC PA [4]	HA, percentage of hemolysis at 150 µM (red blood cell (RBC))
CCCCN(CC(N)=O)C(=O)CN(CCCCN)C(=O)CN(Cc1cccc2ccccc12)C(=O)CN(CCCCN)C(=O)CN(Cc1ccc(C)cc1)C(=O)CN(Cc1cccc2ccccc12)C(=O)CN(CCCCN)C(=O)CN [compound 1] (H-G[Nlys][N(1-naphthylmethyl)Gly][N(4-MeBn)Gly][Nlys][N(1-naphthylmethyl)Gly][Nlys][NBuGly]-NH2; N-terminus assumed)	4 µg/mL (≈ 3.55 µM)	4 µg/mL (≈ 3.55 µM)	16 µg/mL (≈ 14.2 µM)	32 µg/mL (≈ 28.4 µM)	42%
CCCCN(CC(N)=O)C(=O)CN(CCCCN)C(=O)CN(Cc1cccc2ccccc12)C(=O)CN(CCCCN)C(=O)CN(Cc1ccc(C)cc1)C(=O)CN(Cc1cccc2ccccc12)C(=O)CNC(=O)CNCCCCN [compound 2] (H-[Nlys]G[N(1-naphthylmethyl)Gly][N(4-MeBn)Gly][Nlys][N(1-naphthylmethyl)Gly][Nlys][NBuGly]-NH2; N-terminus assumed)	16 µg/mL (≈ 14.2 µM)	8 µg/mL (≈ 7.1 µM)	16 µg/mL (≈ 14.2 µM)	64 µg/mL (≈ 56.8 µM)	48%
CCCCN(CC(N)=O)C(=O)CN(CCCCN)C(=O)CN(Cc1cccc2ccccc12)C(=O)CN(CCCCN)C(=O)CN(Cc1ccc(C)cc1)C(=O)CNC(=O)CN(CCCCN)C(=O)CNCCCCN [compound 3] (H-[Nlys][Nlys]G[N(4-MeBn)Gly][Nlys][N(1-naphthylmethyl)Gly][Nlys][NBuGly]-NH2; N-terminus assumed)	64 µg/mL (≈ 60.5 µM)	64 µg/mL (≈ 60.5 µM)	>64 µg/mL	>64 µg/mL	56%
CCCCN(CC(N)=O)C(=O)CN(CCCCN)C(=O)CN(Cc1cccc2ccccc12)C(=O)CN(CCCCN)C(=O)CNC(=O)CN(Cc1cccc2ccccc12)C(=O)CN(CCCCN)C(=O)CNCCCCN [compound 4] (H-[Nlys][Nlys][N(1-naphthylmethyl)Gly]G[Nlys][N(1-naphthylmethyl)Gly][Nlys][NBuGly]-NH2; N-terminus assumed)	64 µg/mL (≈ 58.5 µM)	32 µg/mL (≈ 29.2 µM)	>64 µg/mL	>64 µg/mL	40%
CCCCN(CC(N)=O)C(=O)CN(CCCCN)C(=O)CN(Cc1cccc2ccccc12)C(=O)CNC(=O)CN(Cc1ccc(C)cc1)C(=O)CN(Cc1cccc2ccccc12)C(=O)CN(CCCCN)C(=O)CNCCCCN [compound 5] (H-[Nlys][Nlys][N(1-naphthylmethyl)Gly][N(4-MeBn)Gly]G[N(1-naphthylmethyl)Gly][Nlys][NBuGly]-NH2; N-terminus assumed)	4 µg/mL (≈ 3.55 µM)	4 µg/mL (≈ 3.55 µM)	32 µg/mL (≈ 28.4 µM)	16 µg/mL (≈ 14.2 µM)	25%
CCCCN(CC(N)=O)C(=O)CN(CCCCN)C(=O)CNC(=O)CN(CCCCN)C(=O)CN(Cc1ccc(C)cc1)C(=O)CN(Cc1cccc2ccccc12)C(=O)CN(CCCCN)C(=O)CNCCCCN [compound 6] (H-[Nlys][Nlys][N(1-naphthylmethyl)Gly][N(4-MeBn)Gly][Nlys]G[Nlys][NBuGly]-NH2; N-terminus assumed)	>64 µg/mL	>64 µg/mL	>64 µg/mL	>64 µg/mL	6%
CCCCN(CC(N)=O)C(=O)CNC(=O)CN(Cc1cccc2ccccc12)C(=O)CN(CCCCN)C(=O)CN(Cc1ccc(C)cc1)C(=O)CN(Cc1cccc2ccccc12)C(=O)CN(CCCCN)C(=O)CNCCCCN [compound 7] (H-[Nlys][Nlys][N(1-naphthylmethyl)Gly][N(4-MeBn)Gly][Nlys][N(1-naphthylmethyl)Gly]G[NBuGly]-NH2; N-terminus assumed)	8 µg/mL (≈ 7.1 µM)	4 µg/mL (≈ 3.55 µM)	16 µg/mL (≈ 14.2 µM)	16 µg/mL (≈ 14.2 µM)	85%
Cc1ccc(CN(CC(=O)N(CCCCN)CC(=O)N(CC(=O)N(CCCCN)CC(=O)NCC(N)=O)Cc2cccc3ccccc23)C(=O)CN(Cc2cccc3ccccc23)C(=O)CN(CCCCN)C(=O)CNCCCCN)cc1 [compound 8] (H-[Nlys][Nlys][N(1-naphthylmethyl)Gly][N(4-MeBn)Gly][Nlys][N(1-naphthylmethyl)Gly][Nlys]G-NH2; N-terminus assumed)	8 µg/mL (≈ 7 µM)	8 µg/mL (≈ 7 µM)	32 µg/mL (≈ 28 µM)	32 to 64 µg/mL	49%
CCCCN(CC(N)=O)C(=O)CN(CCCCN)C(=O)CN(Cc1cccc2ccccc12)C(=O)CN(C)C(=O)CN(Cc1ccc(C)cc1)C(=O)CN(Cc1cccc2ccccc12)C(=O)CN(CCCCN)C(=O)CNCCCCN [compound 9] (H-[Nlys][Nlys][N(1-naphthylmethyl)Gly][N(4-MeBn)Gly][Sar][N(1-naphthylmethyl)Gly][Nlys][NBuGly]-NH2; N-terminus assumed)	4 µg/mL (≈ 3.5 µM)	4 µg/mL (≈ 3.5 µM)	16 µg/mL (≈ 14 µM)	32 µg/mL (≈ 28 µM)	16%
CCCCN(CC(N)=O)C(=O)CN(CCCCN)C(=O)CN(Cc1cccc2ccccc12)C(=O)CN(Cc1ccc(C)cc1)C(=O)CN(Cc1ccc(C)cc1)C(=O)CN(Cc1cccc2ccccc12)C(=O)CN(CCCCN)C(=O)CNCCCCN [compound 10] (H-[Nlys][Nlys][N(1-naphthylmethyl)Gly][N(4-MeBn)Gly][N(4-MeBn)Gly][N(1-naphthylmethyl)Gly][Nlys][NBuGly]-NH2; N-terminus assumed)	8 µg/mL (≈ 6.5 µM)	8 µg/mL (≈ 6.5 µM)	8 µg/mL (≈ 6.5 µM)	16 µg/mL (≈ 13 µM)	69%
CCCCN(CC(N)=O)C(=O)CN(CCCCN)C(=O)CN(Cc1cccc2ccccc12)C(=O)CN(Cc1cccc2ccccc12)C(=O)CN(Cc1ccc(C)cc1)C(=O)CN(Cc1cccc2ccccc12)C(=O)CN(CCCCN)C(=O)CNCCCCN [compound 11] (H-[Nlys][Nlys][N(1-naphthylmethyl)Gly][N(4-MeBn)Gly][N(1-naphthylmethyl)Gly][N(1-naphthylmethyl)Gly][Nlys][NBuGly]-NH2; N-terminus assumed)	8 µg/mL (≈ 6.31 µM)	8 µg/mL (≈ 6.31 µM)	8 µg/mL (≈ 6.31 µM)	16 µg/mL (≈ 12.6 µM)	87%
CCCCN(CC(N)=O)C(=O)CN(CCCCN)C(=O)CN(Cc1cccc2ccccc12)C(=O)CN(CCO)C(=O)CN(Cc1ccc(C)cc1)C(=O)CN(Cc1cccc2ccccc12)C(=O)CN(CCCCN)C(=O)CNCCCCN [compound 12] (H-[Nlys][Nlys][N(1-naphthylmethyl)Gly][N(4-MeBn)Gly][Gly(N-CH2CH2OH)][N(1-naphthylmethyl)Gly][Nlys][NBuGly]-NH2; N-terminus assumed)	8 µg/mL (≈ 6.83 µM)	8 µg/mL (≈ 6.83 µM)	32 µg/mL (≈ 27.3 µM)	>64 µg/mL	5%
CCCC[C@@H](NC(=O)[C@@H](CCCCN)NC(=O)[C@@H](Cc1cccc2ccccc12)NC(=O)[C@@H](CCCCN)NC(=O)CN(Cc1ccc(C)cc1)C(=O)CN(Cc1cccc2ccccc12)C(=O)CN(CCCCN)C(=O)CNCCCCN)C(N)=O [compound 13] (H-[Nlys][Nlys][N(1-naphthylmethyl)Gly][N(4-MeBn)Gly][dK][d1Nal][dK][dNle]-NH2; N-terminus assumed)	4 µg/mL (≈ 3.34 µM)	4 µg/mL (≈ 3.34 µM)	8 µg/mL (≈ 6.67 µM)	8 µg/mL (≈ 6.67 µM)	34%
CCCCN(CC(N)=O)C(=O)CN(CCCCN)C(=O)CN(Cc1cccc2ccccc12)C(=O)CN(CCCCN)C(=O)[C@@H](Cc1ccccc1)NC(=O)[C@@H](Cc1cccc2ccccc12)NC(=O)[C@@H](CCCCN)NC(=O)[C@H](N)CCCCN [compound 14] (H-[dK][dK][d1Nal][dF][Nlys][N(1-naphthylmethyl)Gly][Nlys][NBuGly]-NH2; N-terminus assumed)	4 µg/mL (≈ 3.38 µM)	4 µg/mL (≈ 3.38 µM)	16 µg/mL (≈ 13.5 µM)	64 µg/mL (≈ 54 µM)	
CCCC[C@@H](NC(=O)CN(CCCCN)C(=O)[C@@H](Cc1cccc2ccccc12)NC(=O)CN(CCCCN)C(=O)[C@@H](Cc1ccccc1)NC(=O)[C@@H](Cc1cccc2ccccc12)NC(=O)CN(CCCCN)C(=O)CNCCCCN)C(N)=O [compound 15] (H-[Nlys][Nlys][d1Nal][dF][Nlys][d1Nal][Nlys][dNle]-NH2; N-terminus assumed)	4 µg/mL (≈ 3.38 µM)	4 µg/mL (≈ 3.38 µM)	32 µg/mL (≈ 27 µM)	>64 µg/mL	
CCCCN(CC(N)=O)C(=O)[C@@H](CCCCN)NC(=O)CN(Cc1cccc2ccccc12)C(=O)[C@@H](CCCCN)NC(=O)CN(Cc1ccc(C)cc1)C(=O)CN(Cc1cccc2ccccc12)C(=O)[C@@H](CCCCN)NC(=O)[C@H](N)CCCCN [compound 16] (H-[dK][dK][N(1-naphthylmethyl)Gly][N(4-MeBn)Gly][dK][N(1-naphthylmethyl)Gly][dK][NBuGly]-NH2; N-terminus assumed)	4 µg/mL (≈ 3.34 µM)	4 µg/mL (≈ 3.34 µM)	16 µg/mL (≈ 13.3 µM)	64 µg/mL (≈ 53.4 µM)	
